Reference: US6863833B1, “Microfabricated apertures for supporting bilayer lipid membranes” (The Board of Trustees of the Leland Stanford Junior …, priority 2001, dated 2005)

Experiments:
[1] = target: staphylococcal α-hemolysin (αHL) channels (Staphylococcus aureus, UniProt P09616); format: biochemical
[2] = Gramicidin D conductance change in lipid bilayer formed across nanoaperture; format: biochemical; details: 5 to 20 μl of 2 mg/ml gD in ethanol added to each bath; within minutes; capacitance remained constant
Description: Lipid bilayers were formed by the method of Montal and Mueller (1972). In practicing the Langmuir-Blodgett technique, one raises two lipid monolayers across an aperture, allowing the lipids to align their hydrophobic tail portions across the aperture so as to form a lipid bilayer. Because of the hydrophobic nature of the lipid tails, in order to form stable bilayers the surface of a BSP must also be hydrophobic. If the substrate is hydrophobic, the lipids can smoothly transition from coating the substrate to spanning the aperture. To reverse the wetting properties of the naturally hydrophilic silicon nitride, the silicon nitride was coated with an alkylsilane (octyltrichlorosilane). Application of this coating was quite simple and very effective. It was not found to be possible to form a bilayer with untreated devices. Use of longer carbon chain silanes or alternative-materials to make the surface even more hydrophobic would further increase bilayer stability.
For smaller apertures, it was more difficult to observe the capacitance change the background. In this case, membrane-bound proteins that affect the electrical properties of the bilayer, such as carriers and ion channels, offered the best proof of the formation of a bilayer. The ion channel peptide Gramicidin D (gD), was chosen for ease of use and large conductance change. […]

Sequence of staphylococcal α-hemolysin (αHL) channels (P09616 27-319 limits assumed): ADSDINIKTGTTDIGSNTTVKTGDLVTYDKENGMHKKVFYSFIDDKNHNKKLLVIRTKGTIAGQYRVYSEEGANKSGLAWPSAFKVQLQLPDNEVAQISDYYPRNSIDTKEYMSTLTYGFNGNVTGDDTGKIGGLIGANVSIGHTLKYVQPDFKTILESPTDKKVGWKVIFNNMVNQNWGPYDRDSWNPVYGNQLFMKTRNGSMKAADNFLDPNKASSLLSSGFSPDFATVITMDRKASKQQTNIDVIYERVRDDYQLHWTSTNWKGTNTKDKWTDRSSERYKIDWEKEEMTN

Molecule | current reduction when a channel becomes blocked [1] | conductance of the bilayer [2]
OC[C@H]1O[C@@H]2O[C@H]3[C@H](O)[C@@H](O)[C@@H](O[C@H]4[C@H](O)[C@@H](O)[C@@H](O[C@H]5[C@H](O)[C@@H](O)[C@@H](O[C@H]6[C@H](O)[C@@H](O)[C@@H](O[C@H]7[C@H](O)[C@@H](O)[C@@H](O[C@H]8[C@H](O)[C@@H](O)[C@@H](O[C@H]1[C@H](O)[C@H]2O)O[C@@H]8CO)O[C@@H]7CO)O[C@@H]6CO)O[C@@H]5CO)O[C@@H]4CO)O[C@@H]3CO [βCD, β-cyclodextrin] | 70±4% | 
Gramicidin D |  | dramatically increased
